“And” between values parts separate entries of the source, which are not always exact repeats. Equal values may be shown once.
Target: T1, LspPae (lipoprotein signal peptidase II from Pseudomonas aeruginosa) (Pseudomonas aeruginosa, UniProt Q9HVM5)
T1 construct: made in house
T1 sequence (Q9HVM5 1-169): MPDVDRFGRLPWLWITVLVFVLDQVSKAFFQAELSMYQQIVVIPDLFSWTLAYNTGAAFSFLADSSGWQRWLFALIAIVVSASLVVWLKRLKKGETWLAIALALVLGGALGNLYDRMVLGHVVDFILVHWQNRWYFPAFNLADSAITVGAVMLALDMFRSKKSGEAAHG
Assay: FRET lipopeptide peptidase assay, LspPae
Type: biochemical
Conditions: for Fluorescence (RFU): FRET substrate + LspA + Myxovirescin; for Rate (RFU/min) / Normalised rate (Vi/V0): replicates 1 and 2; for Ki: estimated Ki’ (apparent inhibition constant)
Description: FRET activity assays. A FRET based assay was developed using a labelled lipopeptide substrate (Supplementary Methods, Supplementary Fig. 3b) to directly monitor the protease activity of LspA. The optimised LspMrs assay buffer included 100 mM Tris/HCl pH 7.8, 150 mM NaCl and 0.09%(w/v) DDM. The corresponding optimized buffer for LspPae included 100 mM MES/NaOH pH 5.6, 150 mM NaCl and 0.05%(w/v) LMNG. All assays were performed at 37 °C.
Reaction mixtures were prepared by vortexing (Clifton, cyclone CM-1) for 2 s and incubated at 37 °C, 800 rpm for 10 to 30 min. […] For dose-response assays, the final DMSO concentration in all reactions was 10%(v/v). Reaction mixtures were pipetted into wells of a 96- (Thermo Scientific) or a 384-well plate (4titude®) and incubated for 10 min at 37 °C in a SpectraMax M3 or a SpectraMax M5e plate reader (Molecular devices) prior to starting the assay. Assays were initiated by adding enzyme to a final concentration in the range 10–300 nM. Total reaction mixture volume was 50 μL. Reactions were monitored by fluorescence (Ex/Em, 320 nm/420 nm) for 30 to 60 min at 37 °C. Initial rates were calculated from the fluorescence intensity versus time progress curves (Supplementary Figs. 5 and 6). Occasionally, lag periods in the progress curves were observed (Supplementary Discussion). In such cases, initial rates were calculated after the lag period had passed (typically 1–5 min) and a steady rate had been established. Dose-response plots to determine IC50 values were generated using Prism® 5 software from GraphPad.
It was possible to convert units of fluorescence change into moles of substrate consumed or products formed because pure products of LspA action on Abz-LALAGC*SS-nY-NH2 had been synthesized and were available. These were used to create a standard curve of fluorescence versus moles of the two products in equimolar amounts and to calculate specific activity values. […]
One consequence of LspMrs having a relatively low specific activity is that, in order to get a reliable signal in activity assays, it was necessary to raise enzyme concentration. For kinetic measurements generally, it is desirable to use an enzyme concentration that is much lower than that of the substrate. In this situation, the usual assumption that added and free substrate concentrations are equal is valid. At high enzyme concentrations [E] therefore, and especially in the case of tight ligand binding where the inhibition constant, Ki, is small, a measured IC50 is limited to [E]/2 4–6. In such circumstances, a meaningful IC50 or Ki can only be obtained with considerable effort. With a few exceptions in the current study, this situation prevailed with both LspA orthologs where IC50 values came close to [E]/2 (Table 1 and Supplementary Table 3, Supplementary Fig. 6). […]
Inhibition of LspA from E. coli by globomycin has been described as non-competitive7. The evidence provided in support o f this conclusion included an insensitivity of IC 50 to substrate concentration and the fact that the Vmax but not the K m changed with globomycin concentration. It was of interest to determine if a similar mode of inhibition applied to LspPae and LspMrs. From published work7–9 and from FRET-based kinetics measurements reported here, we know that globomycin binds with high affinity (Supplementary Fig. 6). Tight binding means that a more in-depth analysis must be carried out in order to identify inhibition type. For such analysis, it is important to know active enzyme concentration accurately. Fortunately, it was possible to use the property of tight inhibitor binding to measure the concentration of active enzyme ( Supplementary Fig. 18a). In the case of LspPae, the estimated value and the concentration determined spectroscopically agreed remarkably well. Parenthetically we note that knowing active LspPae concentration accurately enabled a characterization of the myxovirescin sample used in this study. Myxovirescin also binds tightly to LspA (Supplementary Fig. 6). […]

[1] = Suppl. Fig. 18b, [Myxovirescin] 0.02 μM
[2] = Suppl. Fig. 18b, [Myxovirescin] 0.05 μM
[3] = Suppl. Fig. 18b, [Myxovirescin] 0.08 μM
[4] = Suppl. Fig. 18b, [Myxovirescin] 0.1 μM
[5] = Suppl. Fig. 18b, [Myxovirescin] 0.12 μM
[6] = Suppl. Fig. 18b, [Myxovirescin] 0.15 μM
[7] = Suppl. Fig. 18b, [Myxovirescin] 0.25 μM
[8] = Suppl. Fig. 18c, [Myxovirescin] nominal conc. 0.02 μM, corrected conc. 0.01454 μM
[9] = Suppl. Fig. 18c, [Myxovirescin] nominal conc. 0.05 μM, corrected conc. 0.03635 μM
[10] = Suppl. Fig. 18c, [Myxovirescin] nominal conc. 0.08 μM, corrected conc. 0.05816 μM
[11] = Suppl. Fig. 18c, [Myxovirescin] nominal conc. 0.1 μM, corrected conc. 0.0727 μM
[12] = Suppl. Fig. 18c, [Myxovirescin] nominal conc. 0.12 μM, corrected conc. 0.08724 μM
[13] = Suppl. Fig. 18c, [Myxovirescin] nominal conc. 0.15 μM, corrected conc. 0.10905 μM
[14] = Suppl. Fig. 18c, [Myxovirescin] nominal conc. 0.25 μM, corrected conc. 0.18175 μM

SMILES: CCCC1OC(=O)C(C)CC(C)CCCCC(=O)CCCC(CC)C=CC=C(COC)CCC(O)C(O)CC(O)CNC1=O (centres unmarked) [myxovirescin, myxovirescin A1]
- inhibitor on-rates (5-fold molar excess of antibiotic added 20 to 30 min after start of reaction): fast
- Fluorescence (RFU) (time 27 min): 524.203 RFU
- Fluorescence (RFU) (time 27.5 min): 527.644 RFU
- Fluorescence (RFU) (time 28 min): 525.326 RFU
- Fluorescence (RFU) (time 28.5 min): 532.036 RFU
- Fluorescence (RFU) (time 29 min): 530.446 RFU
- Fluorescence (RFU) (time 29.5 min): 520.770 RFU
- Fluorescence (RFU) (time 30 min): 525.266 RFU
- Fluorescence (RFU) (time 30.5 min): 523.492 RFU
- Fluorescence (RFU) (time 31 min): 522.555 RFU
- Fluorescence (RFU) (time 31.5 min): 520.169 RFU
- Fluorescence (RFU) (time 32 min): 526.741 RFU
- Fluorescence (RFU) (time 32.5 min): 523.010 RFU
- Fluorescence (RFU) (time 33 min): 519.722 RFU
- Fluorescence (RFU) (time 33.5 min): 528.885 RFU
- Fluorescence (RFU) (time 34 min): 517.843 RFU
- Fluorescence (RFU) (time 34.5 min): 518.721 RFU
- Fluorescence (RFU) (time 35 min): 516.893 RFU
- Fluorescence (RFU) (time 35.5 min): 521.148 RFU
- Fluorescence (RFU) (time 36 min): 519.865 RFU
- Fluorescence (RFU) (time 36.5 min): 522.746 RFU
- Fluorescence (RFU) (time 37 min): 519.603 RFU
- Fluorescence (RFU) (time 37.5 min): 522.440 RFU
- Fluorescence (RFU) (time 38 min): 518.255 RFU
- Fluorescence (RFU) (time 38.5 min): 516.274 RFU
- Fluorescence (RFU) (time 39 min): 516.879 RFU
- Fluorescence (RFU) (time 39.5 min): 521.400 RFU
- Fluorescence (RFU) (time 40 min): 509.974 RFU
- Fluorescence (RFU) (time 40.5 min): 516.718 RFU
- Fluorescence (RFU) (time 41 min): 513.520 RFU
- Fluorescence (RFU) (time 41.5 min): 514.018 RFU
- Fluorescence (RFU) (time 42 min): 520.839 RFU
- Fluorescence (RFU) (time 42.5 min): 520.491 RFU
- Fluorescence (RFU) (time 43 min): 514.424 RFU
- Fluorescence (RFU) (time 43.5 min): 516.271 RFU
- Fluorescence (RFU) (time 44 min): 509.335 RFU
- Fluorescence (RFU) (time 44.5 min): 511.506 RFU
- Fluorescence (RFU) (time 45 min): 512.926 RFU
- Fluorescence (RFU) (time 45.5 min): 515.088 RFU
- Fluorescence (RFU) (time 46 min): 509.497 RFU
- Fluorescence (RFU) (time 46.5 min): 509.153 RFU
- Fluorescence (RFU) (time 47 min): 505.807 RFU
- Fluorescence (RFU) (time 47.5 min): 508.613 RFU
- Fluorescence (RFU) (time 48 min): 508.252 RFU
- Fluorescence (RFU) (time 48.5 min): 514.611 RFU
- Fluorescence (RFU) (time 49 min): 508.852 RFU
- Fluorescence (RFU) (time 49.5 min): 511.333 RFU
- Fluorescence (RFU) (time 50 min): 507.505 RFU
- Fluorescence (RFU) (time 50.5 min): 508.404 RFU
- Fluorescence (RFU) (time 51 min): 511.832 RFU
- IC50 (IC50, 20 nM LspPae, substrate 5 µM): 9.76 nM and 12.3 nM
- IC50 (IC50, 20 nM LspPae, substrate 7.5 µM): 10.4 nM and 12.9 nM
- IC50 (IC50, 20 nM LspPae, substrate 10 µM): 11.1 nM and 14.4 nM
- IC50 (IC50, 20 nM LspPae, substrate 15 µM): 8.51 nM and 11.1 nM
- IC50 (IC50, 20 nM LspPae, substrate 20 µM): 9.14 nM and 13.9 nM
- IC50 (IC50, 20 nM LspPae, substrate 30 µM): 11.4 nM and 13.8 nM
- IC50 (IC50, FRET, 0.1 µM enzyme, 30 µM substrate, initial rates): 53 nM
- IC50 (IC50, LspPae concentration 10 nM): 4.1 nM and 5 nM
- IC50 (IC50, LspPae concentration 20 nM): 13.5 nM and 21.2 nM
- IC50 (IC50, LspPae concentration 40 nM): 20.3 nM and 26.1 nM
- IC50 (IC50, LspPae concentration 60 nM): 24.5 nM and 34.1 nM
- IC50 (IC50, LspPae concentration 80 nM): 41.7 nM and 50.6 nM
- IC50 (IC50, LspPae concentration 100 nM): 49.2 nM and 55.8 nM
- Rate (RFU/min) (LspPae block, log [myxo] (uM) -0.82): 0.2 RFU/min
- Rate (RFU/min) (LspPae block, log [myxo] (uM) -0.92): 0.1 RFU/min and 0.2 RFU/min
- Rate (RFU/min) (LspPae block, log [myxo] (uM) -1.00): 0.1 RFU/min and 0.2 RFU/min
- Rate (RFU/min) (LspPae block, log [myxo] (uM) -1.10): 1.3 RFU/min and 1.5 RFU/min
- Rate (RFU/min) (LspPae block, log [myxo] (uM) -1.30): 5.8 RFU/min and 6.2 RFU/min
- Rate (RFU/min) (LspPae block, log [myxo] (uM) -1.70): 10.2 RFU/min and 10.1 RFU/min
- Rate (RFU/min) (LspPae block, log [myxo] (uM) -2.00): 11.4 RFU/min and 11.5 RFU/min
- Normalised rate (Vi/V0) [1]: 0.8634 and 0.8943
- Rate (RFU/min) [1]: 45.52 RFU/min and 45.67 RFU/min
- Normalised rate (Vi/V0) [2]: 0.6591 and 0.6875
- Rate (RFU/min) [2]: 34.75 RFU/min and 35.11 RFU/min
- Normalised rate (Vi/V0) [3]: 0.4365 and 0.4511
- Rate (RFU/min) [3]: 23.01 RFU/min and 23.04 RFU/min
- Normalised rate (Vi/V0) [4]: 0.2771 and 0.2863
- Rate (RFU/min) [4]: 14.61 RFU/min and 14.62 RFU/min
- Normalised rate (Vi/V0) [5]: 0.09825 and 0.09947
- Rate (RFU/min) [5]: 5.18 RFU/min and 5.08 RFU/min
- Normalised rate (Vi/V0) [6]: 0.01309 and 0.02976
- Rate (RFU/min) [6]: 0.69 RFU/min
- Normalised rate (Vi/V0) [7]: 0.01574 and 0.02741
- Rate (RFU/min) [7]: 0.83 RFU/min and 1.4 RFU/min
- Normalised rate (Vi/V0) [8]: 0.8634 and 0.8943
- Rate (RFU/min) [8]: 45.52 RFU/min and 45.67 RFU/min
- Normalised rate (Vi/V0) [9]: 0.6591 and 0.6875
- Rate (RFU/min) [9]: 34.75 RFU/min and 35.11 RFU/min
- Normalised rate (Vi/V0) [10]: 0.4365 and 0.4511
- Rate (RFU/min) [10]: 23.01 RFU/min and 23.04 RFU/min
- Normalised rate (Vi/V0) [11]: 0.2771 and 0.2863
- Rate (RFU/min) [11]: 14.61 RFU/min and 14.62 RFU/min
- Normalised rate (Vi/V0) [12]: 0.09825 and 0.09947
- Rate (RFU/min) [12]: 5.18 RFU/min and 5.08 RFU/min
- Normalised rate (Vi/V0) [13]: 0.01309 and 0.02976
- Rate (RFU/min) [13]: 0.69 RFU/min
- Normalised rate (Vi/V0) [14]: 0.01574 and 0.02741
- Rate (RFU/min) [14]: 0.83 RFU/min and 1.4 RFU/min
- IC50 (average IC50, 20 nM LspPae, substrate 2.5 or 5 to 30 µM): ~10 nM
- Ki (Morrison analysis, 30 µM substrate, 0.1 µM LspPae): 0.0476 ± 0.128 nM
- Ki (from dependence of IC50 on enzyme concentration, IC50 = Ki’ + [E]/2): 2.69 ± 2.8 nM
